We go through six substances from US11884710B2, “Peptide compounds and methods of use in wound healing” (priority 2013, dated 2024).

Test [1] deals with Pseudomonas aeruginosa ATCC 27853. The experiment in a line: In vitro bactericidal assay, P. aeruginosa ATCC 27853 (FIGS. 12-14). The class given is cell-based. The conditions noted are these: for bactericidal effectiveness concluded by extrapolation: even at substantially lower concentrations of the peptide. On the procedure:
Each of the test peptides was used at 25, 12.5 6.25, and 3.12 μM. The gentamicin was used at 4 μg/ml. 1×10^6/ml Pseudomonas aeruginosa ATCC® 27853™ (American Type Culture Collection, Manassas, Va.) were incubated with the peptides, negative buffer control (tryptone saline), and positive control gentamicin for 180 minutes at pH 7.2. 50 μl aliquots were plated out on agar plates and incubated overnight. Colony forming units were counted after overnight incubation and CFU/ml calculated.
Each of the test peptides was used at 25, 12.5, 6.25, and 3.12 μM. The gentamicin was used at 4 μg/ml. 1×10^6/ml Pseudomonas aeruginosa ATCC® 27853™ (American Type Culture Collection, Manassas, Va.) were incubated with the peptides, negative buffer control (tryptone saline), and positive control gentamicin for 180 minutes at pH 5.5. 50 μl aliquots were plated out on agar plates and incubated overnight. Colony forming units were counted after overnight incubation and CFU/ml calculated.
FIG. 14 is a comparison of bactericidal activity of CAP37 peptides 120-146WR (SEQ ID NO:30), 120-146WH (SEQ ID NO:31), 120-146QR (SEQ ID NO:28), 120-146QH (SEQ ID NO:29), 120-146QR-5RMP (SEQ ID NO:32), and 120-146QH-5RMP (SEQ ID NO:33) for Pseudomonas aeruginosa ATCC® 27853™ (American Type Culture Collection, Manassas, Va.). 1×10^6/ml Pseudomonas aeruginosa ATCC® 27853™ were incubated with the peptides at 150, 75, and 37.5 μg/ml and negative buffer control (tryptone saline) for 180 minutes at pH 5.5. 50 μl aliquots were plated out on agar plates and incubated overnight. Colony forming units were counted after overnight incubation and CFU/ml calculated.
(§1) For FIGS. 10-13, in vitro bactericidal assays were performed using a starting inoculum of 1×10^6 CFU/ml of the bacterial suspension. The CFU remaining at the end of the 60-180 minute incubation was determined, and the data was plotted as log reduction in CFU/ml.
(§2) In particular, each of the test peptides (CAP37 peptides 120-146WR, 120-146WH, and 95-122 (SEQ ID NOS:30, 31, and 26, respectively)) was used at 25, 12.5, 6.25, and 3.12 μM. Gentamicin was used at 4 μg/ml. 1×10^6/ml Acinetobacter baumannii ATCC® BAA-747™ or Pseudomonas aeruginosa ATCC® 27853™ (American Type Culture Collection, Manassas, Va.) were incubated with the peptides, negative buffer control (tryptone saline), and positive control gentamicin at pH 5.5 or 7.2. A 60 minute incubation was used for Acinetobacter baumannii ATCC® BAA-747™, while a 180 minute incubation was used for Pseudomonas aeruginosa ATCC® 27853™. 50 μl aliquots were plated out on agar plates and incubated overnight. Colony forming units were counted after overnight incubation and CFU/ml calculated.
For FIG. 14, 1×10^6/ml Pseudomonas aeruginosa ATCC® 27853™ were incubated with each of the test peptides (CAP37 peptides 120-146WR, 120-146WH, 120-146QR, 120-146QH, 120-146QR-5RMP, and 120-146QH-5RMP (SEQ ID NOS:30, 31, 28, 29, 32, and 33, respectively)) at 150, 75, and 37.5 μg/ml, or negative buffer control (tryptone saline), for 180 minutes at pH 5.5. 50 μl aliquots were plated out on agar plates and incubated overnight. Colony forming units were counted after overnight incubation and CFU/ml calculated.

For test [2], the system named is full thickness excisional wounds. Nature of the test: Swine full thickness excisional dermal wound model. The class given is in vivo. The conditions noted are these: for Mean Wound Healing (%): topical 3 mg/ml, 0.20 ml daily. On the procedure:
In this Example, peptide compounds of the presently disclosed inventive concepts were evaluated as to their activity on the dermal wound healing process in a clinically relevant swine full thickness excisional wound model. Three different peptide formulations (Group B, Peptide 95-122 (SEQ ID NO:26); Group C, Peptide 120-146WH (SEQ ID NO:31); and Group D, Peptide 120-146QH-5RMP (SEQ ID NO:33)) were each evaluated at the same concentration (3 mg/ml). Sterile saline served as the control (Group A).
(§3) Full thickness excisional wounds were induced on the dorsum of swine (N=3) using a 1.0 cm biopsy punch. Treatments were administered (0.20 ml) to each wound (N=6 wounds per group), and the wounds were dressed with standard occlusive dressing ([…]™, 3M Corporation, St. Paul, Minn.). Treatments were reapplied daily and dressings changed. Clinical wound healing observations and wound area (2 mm) measurements were performed on days 0, 3, 5, 7, 10, and 14 post-wounding. Wound area (2 mm) data were expressed as percentage (%) of wound healing. Animals were terminated on day 14 with wounds harvested and processed for histological evaluation. […] All peptide formulation treatment groups healed faster with greater rate of closure and re-epithelialization over time, as compared to the saline control (Group A).

Test [3] has the same test system. Nature of the test: Histopathology of swine dermal wounds. Also on record: Inflammation, mean histopathology score / Angiogenesis, mean histopathology score / Granulation, mean histopathology score / Epithelization, mean histopathology score: scale not given here. The test is classed as in vivo. On the procedure:
The characteristics that were measured are required to indicate features of a well-healed wound. Inflammation should be low and re-epithelialization high.
as §3
The histology correlated with the clinical observations. […] There were minimal differences in the amount or character of granulation tissue, inflammation, and angiogenesis. All the wounds were well filled and vascularized.

Test [4] has as its system Acinetobacter baumannii ATCC BAA-747. The experiment in a line: In vitro bactericidal assay, A. baumannii ATCC BAA-747 (FIGS. 10-11). The test is classed as cell-based. The conditions noted are these: 60 minutes, peptides 3.12-25 μM, gentamicin 4 μg/ml. Here is the method: Each of the test peptides was used at 25, 12.5 6.25 and 3.12 μM. The gentamicin was used at 4 μg/ml. 1×10^6/ml Acinetobacter baumannii ATCC® BAA-747™ (American Type Culture Collection, Manassas, Va.) were incubated with the peptides, negative buffer control (tryptone saline), and positive control gentamicin for 60 minutes at pH 5.5. 50 μl aliquots were plated out on agar plates and incubated overnight. Colony forming units were counted after overnight incubation and CFU/ml calculated.
Each of the test peptides was used at 25, 12.5 6.25 and 3.12 μM. The gentamicin was used at 4 μg/ml. 1×10^6/ml Acinetobacter baumannii ATCC® BAA-747™ (American Type Culture Collection, Manassas, Va.) were incubated with the peptides, negative buffer control (tryptone saline), and positive control gentamicin for 60 minutes at pH 7.2. 50 μl aliquots were plated out on agar plates and incubated overnight. Colony forming units were counted after overnight incubation and CFU/ml calculated.
as §1, §2

The subject of test [5] is human corneal epithelial cell (HCEC). The experiment in a line: HCEC chemotaxis, modified Boyden chemotaxis chamber. The class given is cell-based. Conditions: for HCEC migration compared with the whole CAP37 protein, in words: 120-146QH at 10^−6 M and 10^−8 M, 120-146QR concentration not stated; for migration of HCECs vs buffer control, in words: 3 hours at 37° C. Here is the method:
The effect of buffer control (0.1% BSA in Gey's buffer), heparin binding-epidermal growth factor (HB-EGF, 50 ng/ml), recombinant CAP37 (rCAP37, 250 ng/ml), 120-146QH (10^−12M, 10^−10 M, 10^−8 M, 10^−6M, and 10^−4M,) and 120-146QR (10^−10M, 10^−8M, 10^−6M, and 10^−4M) on HCEC chemotaxis was determined by the modified Boyden chemotaxis chamber method. HCEC chemotaxis was measured in response to HB-EGF, rCAP37, and peptides 120-146QH (SEQ ID NO:29) and 120-146QR (SEQ ID NO:28) after incubation for 3 hours at 37° C. Chemotaxis is expressed as a percent migration. The buffer control (no chemoattractant) is arbitrarily assigned the value of 100% migration. Data are expressed as means±SEM and are calculated from 6 observations for each test point. **P<0.01 by Wilcoxon signed-rank test as compared to controls.
Chemotaxis: Chemotaxis assays were performed using the modified Boyden chemotaxis chamber assay. Peptide 120-146QH was used at 10^−4 M, 10^−6 M, 10^−8 M, 10^−10 M, and 10^−12 M, and peptide 120-146QR was used at 10^−4 M, 10^−6 M, 10^−8M, and 10^−10M.

Setting [6] is: wounds harvested on day 14, 3 mg/ml.

Square brackets hold non-standard residues; d marks the D form. Ends that are not written are not given here. PEG2 = NCCOCCOCCC(=O)O

With “(AEEP)-(AEEP)-RRRRGTRCQVAGWGSWRSGGRLSRFPRFVNVR ([PEG2][PEG2]RRRRGTRCQVAGWGSWRSGGRLSRFPRFVNVR) [120-146WR-5RMP]”, in test [1], the predicted killing capabilities result was “superior killing capabilities” and the “bactericidal effectiveness concluded by extrapolation” value is recorded as “highly effective”.

As to “(AEEP)-(AEEP)-RRRRGTRCQVAGWGSQHSGGRLSRFPRFVNVR ([PEG2][PEG2]RRRRGTRCQVAGWGSQHSGGRLSRFPRFVNVR) [120-146QH-5RMP]”, the “Mean Wound Healing (%)” value in test [2] (Day 0) is 0.0%; in test [2] (Day 3), 22.5%; in test [2] (Day 5), 34.1%; in test [2] (Day 7), 64.1%; in test [2] (Day 10) it was 93.7%; in test [2] (Day 14), 98.0%. Besides, in test [2] (days 10 and 14 post-wounding, 3 mg/ml), the “percentage of wound healing vs saline control, in words” value is listed as “significant (p<0.05) increase in the percentage of wound healing”. In addition, the “epidermal resurfacing and maturation vs saline control, in words” value in test [3] (day 14 post-wounding) was “greater extent of epidermal resurfacing and maturation of the epidermis”. In addition, the “Angiogenesis, mean histopathology score” value in test [3] (setting [6]) is on record as 1.3. For the same substance, the “Epithelization, mean histopathology score” value in test [3] (setting [6]) is recorded as 4.0. Also, the “Granulation, mean histopathology score” value in test [3] (setting [6]) was 4.0. Also, the “Inflammation, mean histopathology score” value in test [3] (setting [6]) is 0.5. For the same substance, the “reduction in CFU” value in test [1] (FIG. 14, pH 5.5, 180 minutes, even at the lower concentration (75 μg/ml)) was about 6 log.

As to gentamicin [reference compound], the “bactericidal activity, in words” value is “unable to kill the bacteria” in test [4] (pH 5.5); “active against the bacteria” in test [4] (pH 7.2); “highly active” in test [1] (120-146WR at 25 μM, gentamicin 4 μg/ml); “not as effective as the peptides” in test [1] (pH 5.5, 180 minutes, peptides 3.12-25 μM, gentamicin 4 μg/ml). The “reduction of CFU/ml” value in test [1] (pH 5.5, 180 minutes, gentamicin 4 μg/ml) is listed as 2 log.

Regarding “GTRCQVAGWGSQRSGGRLSRFPRFVNV (listed as Homo sapiens) [Peptide 120-146QR]”, the “HCEC migration compared with the whole CAP37 protein, in words” value in test [5] was “less than the migration obtained with the whole protein”. Besides, the “migration of HCECs vs buffer control, in words” value in test [5] (peptide at 10^−6 M and 10^−8 M) was “significantly increase migration of HCECs”. The “activity in in vitro killing assays, in words” value in test [1] (FIG. 14, pH 5.5, 180 minutes) is “relatively inactive”.

For “(AEEP)-(AEEP)-RRRRGTRCQVAGWGSWHSGGRLSRFPRFVNVR ([PEG2][PEG2]RRRRGTRCQVAGWGSWHSGGRLSRFPRFVNVR) [120-146WH-5RMP]”, in test [1], the predicted killing capabilities result is listed as “superior killing capabilities” and the “bactericidal effectiveness concluded by extrapolation” value was “highly effective”.

As to “GTRCQVAGWGSQHSGGRLSRFPRFVNV (derivative of peptide of Homo sapiens CAP37 protein) [Peptide 120-146QH]”, in test [5], the “HCEC migration compared with the whole CAP37 protein, in words” value is reported as “comparable to the migration obtained with the whole CAP37 protein”. In test [5] (peptide at 10^−4 M, 10^−6 M, 10^−8 M, and 10^−10 M), the “migration of HCECs vs buffer control, in words” value is “significantly increase migration of HCECs”. The “activity in in vitro killing assays, in words” value in test [1] (FIG. 14, pH 5.5, 180 minutes) is “relatively inactive”.
